These results are taken from paper PMC11714206, “Massively Parallel Screening of Toll/Interleukin‐1 Receptor (TIR)‐Derived Peptides Reveals Multiple Toll‐Like Receptors (TLRs)‐Targeting Immunomodulatory Peptides” (Advanced Science, 2024).

For the assay, the target named is T1, MAL^TIR (Homo sapiens, UniProt P58753).
T1 construct: MAL (residues 79–221); 6xHis; made in house; host or cells: E. coli BL21 (DE3)
The assay can be described thus: T‐Surf phage library (P8 and P3) selection against MAL^TIR, four rounds, NGS read counts. It is filed as binding. As to conditions: for P3_MAL Rank (after) / P3_MAL Rank (before): P3 library; for P8_MAL Rank (after) / P8_MAL Rank (before): P8 library; for Population: 4th round of selection against MAL TIR, share of NGS reads. A digest of the protocol:
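Library of 190 946 TIR‐derived peptides on P8 or P3 was panned on immobilized TIR domain coated at 5 µg mL^−1, BSA‐blocked, 1 h binding at RT, PBS/0.5% Tween‐20 washes, HCl elution, TG1 amplification. Fourth‐round pools were PCR‐barcoded, sequenced (100 bp paired‐end, Phred ≥30), and peptides ranked by read counts.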

Where [1] appears, read: selection against MAL, rank by count after grouping.
Setting [2] is: selection against MAL, rank by count before grouping.
Where [3] appears, read: P3_MAL: rank by count after grouping.
Setting [4] is: P3_MAL: rank by count before grouping.
[5] abbreviates: selection against MAL TIR, rank by count after grouping.
Setting [6] is: selection against MAL TIR, rank by count before grouping.
[7] abbreviates: 4R selection against MAL, rank after grouping.
Setting [8] is: 4R selection against MAL, rank before grouping.
Setting [9] is: selection against MAL, rank after grouping.
Where [10] appears, read: selection against MAL, rank before grouping.
[11] abbreviates: P8_MAL: rank by count after grouping.
The mark [12] stands for this setting: P8_MAL: rank by count before grouping.
Where [13] appears, read: P3_MAL pool: P3 T-Surf phage library.
Setting [14] is: P8_MAL pool: P8 T-Surf phage library.

T1 sequence (P58753 79-221): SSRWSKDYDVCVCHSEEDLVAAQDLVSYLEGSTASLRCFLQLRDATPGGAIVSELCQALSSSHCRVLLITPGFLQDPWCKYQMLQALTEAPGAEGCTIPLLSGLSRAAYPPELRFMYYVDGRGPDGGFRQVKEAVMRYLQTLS

For HQAFWNRLWAKLKPP, the “P3_MAL Rank (after)” value under setting [1] worked out at 755. Besides, the “P3_MAL Rank (before)” value under setting [2] is 2873. Consider SSFREGLWRLLELSNE, for which the “Rank (after)” value under setting [3] was 153. In addition, the “Rank (before)” value under setting [4] turned out to be 1027. For the sequence GWFREGLWRLLELSKK, the “P3_MAL Rank (after)” value under setting [5] is 279. For the same sequence, the “P3_MAL Rank (before)” value under setting [6] is given as 1756. For SEFIQKITLGMNPKIG, the “P8_MAL Rank (after)” value under setting [7] was determined as 673. Further, the “P8_MAL Rank (before)” value under setting [8] amounted to 2481. For ALHNAFWDRLWTKLAP, the “P3_MAL Rank (after)” value under setting [9] came out at 544. Further, the “P3_MAL Rank (before)” value under setting [10] is on record as 1842. For the sequence RLLKWKEALHQFHSSL, the “Rank (after)” value under setting [3] is given as 172. Moreover, the “Rank (before)” value under setting [4] stood at 2515. For YFLQVRLFNLLESDDR, under setting [7], the “P8_MAL Rank (after)” value is 600. Further, under setting [8], the “P8_MAL Rank (before)” value came to 1514.

Consider RNLVAYQFQALPNKGI, for which, under setting [7], the “P8_MAL Rank (after)” value was found to be 658. Moreover, the “P8_MAL Rank (before)” value under setting [8] was 2245. Take PNLRTNVLNYLIRTKT: under setting [3], the “Rank (after)” value was 141. Moreover, under setting [4], the “Rank (before)” value is on record as 2745.

As for AFFCAHLRTVLGKPTM, the “P8_MAL Rank (after)” value under setting [5] is reported as 267. For the same sequence, under setting [6], the “P8_MAL Rank (before)” value stood at 1586. As to ALCWAQLKIVLANLPI, under setting [5], the “P8_MAL Rank (after)” value was determined as 271. In addition, under setting [6], the “P8_MAL Rank (before)” value is reported as 1926. On to WFLSAFLIPMAQLADT, for which, under setting [11], the “Rank (after)” value amounted to 412. Further, the “Rank (before)” value under setting [12] is reported as 1352. RNNFICHLYQELYRIG: the “Rank (after)” value under setting [11] came out at 428. For the same sequence, the “Rank (before)” value under setting [12] worked out at 2264.

Regarding MSMRPGDRLQRSGI, under setting [3], the “Rank (after)” value was 454. Besides, under setting [4], the “Rank (before)” value was 2967. For the sequence LKWGDPRQASKLGYTM, the “P3_MAL Rank (after)” value under setting [1] is 761. Besides, under setting [2], the “P3_MAL Rank (before)” value stood at 2242. With NQWRNALTAAAKLKAPI, the “P3_MAL Rank (after)” value under setting [9] turned out to be 522. In addition, under setting [10], the “P3_MAL Rank (before)” value is on record as 3386. Turning to KLLWVKFKFFLPSLSR, the “P8_MAL Rank (after)” value under setting [5] was determined as 211. Moreover, the “P8_MAL Rank (before)” value under setting [6] was 2730. With PNLRPQVLNYLIRTKT, the “P3_MAL Rank (after)” value under setting [5] was 208. The “P3_MAL Rank (before)” value under setting [6] was 2670. Take HLLKIVLEKFASHRSS: the “P8_MAL Rank (after)” value under setting [7] was 614. For the same sequence, the “P8_MAL Rank (before)” value under setting [8] was 2335. As to LGKPGVTDEAQETGSL, the “Rank (after)” value under setting [3] is recorded as 95. For the same sequence, the “Rank (before)” value under setting [4] is given as 95. RGFLNQLRQHLHAKDH: the “P3_MAL Rank (after)” value under setting [9] was 548. Further, the “P3_MAL Rank (before)” value under setting [10] came to 2403. For WFYERQVSLILRDTNV, the “Rank (after)” value under setting [11] was found to be 98. In addition, the “Rank (before)” value under setting [12] was 1259. On to GWFLNKLSQLILKKEK, for which, under setting [13], the Population came out at 0.03%. Further, under setting [3], the “Rank (after)” value was found to be 100. Also, under setting [4], the “Rank (before)” value was found to be 100.

Regarding RGFLSHLHRYLVQRGV, under setting [3], the “Rank (after)” value is 109. For the same sequence, the “Rank (before)” value under setting [4] came out at 250.

Consider SFMLKFRTVLHHVHDV, for which the “P8_MAL Rank (after)” value under setting [7] was 583. For the same sequence, under setting [8], the “P8_MAL Rank (before)” value is 1451. For the sequence FMSHLYQGLLKGLIIT, under setting [1], the “P3_MAL Rank (after)” value was determined as 681. Besides, the “P3_MAL Rank (before)” value under setting [2] is listed as 1202. With SSFREGLSPLAELSGK, the “Rank (after)” value under setting [3] is on record as 464. Besides, the “Rank (before)” value under setting [4] worked out at 3174. In the case of FMSHLYQGLKIVAFL, the “P3_MAL Rank (after)” value under setting [9] turned out to be 523. Besides, under setting [10], the “P3_MAL Rank (before)” value came to 1204.

On to RAFVAHLYEALKKRAN, for which the “P3_MAL Rank (after)” value under setting [9] stood at 547. For the same sequence, the “P3_MAL Rank (before)” value under setting [10] is listed as 2451. On to YLKWGYPGLWDRLRFA, for which the “P3_MAL Rank (after)” value under setting [5] is 212. Moreover, under setting [6], the “P3_MAL Rank (before)” value is listed as 1517. For WFYERLVSLILRDTKX, the Population under setting [14] is 0.0034%. As for NQWRNALTAAASLSGR, the “P3_MAL Rank (after)” value under setting [5] was 221. The “P3_MAL Rank (before)” value under setting [6] came out at 3364. With MSHLYQGLKNRGI, the Population under setting [13] worked out at 0.00413%.

As to HQSFWARTWAALIAPS, under setting [1], the “P3_MAL Rank (after)” value was determined as 724. In addition, the “P3_MAL Rank (before)” value under setting [2] was 2849. Consider LQNQWKLALTQAAN, for which the “P3_MAL Rank (after)” value under setting [5] amounted to 231. Moreover, under setting [6], the “P3_MAL Rank (before)” value is 827. Regarding KLIQGWFLYRLMQIEQ, under setting [1], the “P8_MAL Rank (after)” value was determined as 707. The “P8_MAL Rank (before)” value under setting [2] was 2749. For PVAHEISKKMQLFATI, the “P3_MAL Rank (after)” value under setting [7] is 654. Moreover, under setting [8], the “P3_MAL Rank (before)” value is listed as 2631. Regarding KNVRLARSVRKNGVP, the “P3_MAL Rank (after)” value under setting [1] came out at 697. For the same sequence, the “P3_MAL Rank (before)” value under setting [2] amounted to 3474. Consider AFLCAHLKSVLGNPTI, for which the “Rank (after)” value under setting [11] was determined as 461. The “Rank (before)” value under setting [12] is reported as 1804. Turning to KMQKWKDALYEAAN, the “P3_MAL Rank (after)” value under setting [1] was determined as 710. Besides, the “P3_MAL Rank (before)” value under setting [2] is reported as 3685. As to SEFIQKIILWMNLKNQ, the “P8_MAL Rank (after)” value under setting [7] is 581. Moreover, the “P8_MAL Rank (before)” value under setting [8] was determined as 2466.

As for YNFISHLYDALHQFHSWV, under setting [3], the “Rank (after)” value was found to be 150. The “Rank (before)” value under setting [4] worked out at 523. On to LFFWERLKQLLRSDCR, for which the “Rank (after)” value under setting [11] is 100. In addition, the “Rank (before)” value under setting [12] was found to be 2072. As to SEFIQKISLWMNAKIV, the “Rank (after)” value under setting [11] came to 171. For the same sequence, the “Rank (before)” value under setting [12] worked out at 2486. Regarding AFLYTFLNNLTHPTKF, the “Rank (after)” value under setting [11] was 94. The “Rank (before)” value under setting [12] was found to be 1870.

In the case of KMQKWKDALYEAAKLG, the “P3_MAL Rank (after)” value under setting [5] worked out at 250. In addition, the “P3_MAL Rank (before)” value under setting [6] came to 3687. Turning to RLWDRLRYLMPRNNHH, the “P3_MAL Rank (after)” value under setting [9] turned out to be 571. Further, the “P3_MAL Rank (before)” value under setting [10] is 2325. In the case of MERVKAFHQRLKTAPI, the “P3_MAL Rank (after)” value under setting [5] stood at 225. Also, the “P3_MAL Rank (before)” value under setting [6] was determined as 2932.

As for RDFVAYLCQALANKGI, under setting [7], the “P8_MAL Rank (after)” value is on record as 626. Further, the “P8_MAL Rank (before)” value under setting [8] is listed as 2172. For the sequence WFYERLVSLILRNTRV, the “Rank (after)” value under setting [11] turned out to be 118. The “Rank (before)” value under setting [12] was 1290. Turning to AFLYTFLINLAHPTNF, the Population under setting [14] was 0.00278%. On to RNFVAYLFKALANTGI, for which the “P8_MAL Rank (after)” value under setting [9] worked out at 526. Under setting [10], the “P8_MAL Rank (before)” value is reported as 2219. For the sequence GFYERQVSLVLGDTKV, under setting [5], the “P8_MAL Rank (after)” value is 281. The “P8_MAL Rank (before)” value under setting [6] is recorded as 1569. With LFYERLVSLILRDTRG, under setting [9], the “P8_MAL Rank (after)” value was 496. Also, the “P8_MAL Rank (before)” value under setting [10] was 1104. With AFLWTQLKSVLGNPTM, the “P8_MAL Rank (after)” value under setting [5] is listed as 242. The “P8_MAL Rank (before)” value under setting [6] was 1764. Consider AFLGHLYNALVQAGIH, for which, under setting [14], the Population was determined as 0.00371%.

On to WFYERLVSLILRYTKV, for which the Population under setting [14] was determined as 0.00309%. As to PNLRTQVQNYLLPNKT, the “P3_MAL Rank (after)” value under setting [9] came to 524. Moreover, the “P3_MAL Rank (before)” value under setting [10] worked out at 2686. For SLRKKLVRNLIEEFKR, the “P3_MAL Rank (after)” value under setting [1] was 688. Besides, the “P3_MAL Rank (before)” value under setting [2] was 3100.

WFYERLVSLIMRDNIV: the “P8_MAL Rank (after)” value under setting [7] stood at 634. The “P8_MAL Rank (before)” value under setting [8] was 1183. As for YVLHFLLFSRREPEYI, the “P8_MAL Rank (after)” value under setting [9] is given as 487. In addition, the “P8_MAL Rank (before)” value under setting [10] was 1524.

Consider WFYERLVRLILSDTKV, for which, under setting [9], the “P8_MAL Rank (after)” value is given as 549. Under setting [10], the “P8_MAL Rank (before)” value came out at 1175. For SSFREGLWRLLELNKK, under setting [13], the Population was found to be 0.00488%. Consider LFFCESLKQLLRSDGH, for which the “P8_MAL Rank (after)” value under setting [5] is 244. Also, the “P8_MAL Rank (before)” value under setting [6] is on record as 2057. As to PNLRTTVQNYLMRTKT, the “P3_MAL Rank (after)” value under setting [5] is 216. For the same sequence, the “P3_MAL Rank (before)” value under setting [6] worked out at 2690. Regarding YAFTCHLHRYLVQRGV, the Population under setting [13] was 0.00413%.
